Where two headings read alike, the source gives them in different places.
Legend:
nAChR α7 = nAChR α7 (Homo sapiens, UniProt P36544); conditions: FIG. 6
Method: To screen for α7 modulatory activity, the 96 well plate is placed in a fluorescence imaging plate reader (FLIPR) and test compounds along with an α7 agonist are applied simultaneously to all wells. Receptor activation is measured by calcium influx into cells which is quantified by the increase in fluorescence intensity of each well, recorded simultaneously by the FLIPR. A modulatory effect is determined by the increase in fluorescence over that of agonist alone. Similarly, to test for nAChR α7 agonist activity, test compounds along with an α7 modulator are applied simultaneously to all wells. Receptor activation is measured by calcium influx into cells which is quantified by the increase in fluorescence intensity of each well, recorded simultaneously by the FLIPR. An agonist effect is determined by the increase in fluorescence over that of modulator alone.
Effect of nAChR α7 modulator on agonist activity was measured by Ca^2+ flux through nAChR α7 expressed in HEK-293 cells. The nicotinic agonist (−)-Spiro[1-Azabicyclo[2.2.2.]Octane-3,5*-Oxazolidine]-2*-One, was used.

α7-nicotinic receptor = assay: Two-electrode voltage-clamp current recording from Xenopus oocytes expressing α7-nicotinic receptors; format: cell-based, human, rat and chick
Method: (a) Xenopus Oocyte Current Recording
The Xenopus oocyte has provided a powerful means of assessing the function of proteins thought to be subunits of ligand-gated ion-channels.
Consequently, one convenient technique to assess the enhancement of nicotinic efficacy is two-electrode voltage-clamp recording from Xenopus oocytes expressing α7-nicotinic receptors from cRNA.
Oocytes were removed to OR2 solution (82 mM NaCl, 2.5 mM KCl, 5 mM HEPES, 1.5 mM NaH2PO4, 1 mM MgCl2, 0.1 mM EDTA; pH 7.4). The oocytes were defolliculated by incubation in 25 ml OR2 containing 0.2% collagenase 1A (Sigma) two times for 60 min on a platform vibrating at 1 Hz and stored in Leibovitz's L-15 medium (50 μg/ml gentomycin, 10 Units/ml penicillin, and 10 μg/ml streptomycin). Approximately 50 ng of cRNA was injected in each oocyte the following day. cRNA was synthesised from cDNA using Message Machine (purchased from Abion).
The external recording solution consisted of 90 mM NaCl, 1 mM KCl, 1 mM MgCl2, 1 mM BaCl2, 5 mM HEPES; pH 7.4. […] Oocytes were impaled with two electrodes of 1-2 MΩ tip resistance when filled with 3M KCl. Recordings were begun when membrane potential became stable at potentials negative to −20 mV (resting membrane potentials are less negative when Ba^++ replaces Ca^++ in bathing solutions). Membrane potential was clamped at −80 mV.
Current amplitude was measured from baseline to peak. EC50 values, maximal effect, and Hill slopes were estimated by fitting the data to the logistic equation using GraphPad Prism (GraphPad Software, Inc., San Diego, Calif.).
Increases in agonist efficacy elicited by a positive modulator can be calculated in two ways: • (1) As percent potentiation of current amplitude which is defined as 100(Im−Ic)/Ic where Im is current amplitude in the presence of modulator and Ic is current in the absence of modulator (FIG. 1). • (2) As percent potentiation of “area under curve” of an agonist trace. Area under the curve is a common representation of the total ion flux through the channel (FIG. 2).

[1] = biological target: mouse muscle-type nicotinic receptors (Mus musculus, UniProt P02716+P04756+P09690); assay: Efficacy enhancement on other nicotinic receptors; format: cell-based
Chain of mouse muscle-type nicotinic receptors (P04756 21-457): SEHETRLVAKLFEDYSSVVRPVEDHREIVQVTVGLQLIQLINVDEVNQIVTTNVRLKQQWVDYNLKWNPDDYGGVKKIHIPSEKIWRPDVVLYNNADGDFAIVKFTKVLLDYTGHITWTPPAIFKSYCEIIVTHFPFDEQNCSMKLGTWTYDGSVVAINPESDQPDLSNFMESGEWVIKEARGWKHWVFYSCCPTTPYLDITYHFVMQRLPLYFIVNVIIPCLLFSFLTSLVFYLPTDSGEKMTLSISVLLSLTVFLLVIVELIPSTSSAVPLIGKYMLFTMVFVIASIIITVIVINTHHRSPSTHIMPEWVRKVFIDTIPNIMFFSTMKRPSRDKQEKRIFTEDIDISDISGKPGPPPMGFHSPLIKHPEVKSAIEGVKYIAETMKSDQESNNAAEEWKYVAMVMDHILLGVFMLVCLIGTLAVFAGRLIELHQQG
Chain of mouse muscle-type nicotinic receptors (P09690 24-501): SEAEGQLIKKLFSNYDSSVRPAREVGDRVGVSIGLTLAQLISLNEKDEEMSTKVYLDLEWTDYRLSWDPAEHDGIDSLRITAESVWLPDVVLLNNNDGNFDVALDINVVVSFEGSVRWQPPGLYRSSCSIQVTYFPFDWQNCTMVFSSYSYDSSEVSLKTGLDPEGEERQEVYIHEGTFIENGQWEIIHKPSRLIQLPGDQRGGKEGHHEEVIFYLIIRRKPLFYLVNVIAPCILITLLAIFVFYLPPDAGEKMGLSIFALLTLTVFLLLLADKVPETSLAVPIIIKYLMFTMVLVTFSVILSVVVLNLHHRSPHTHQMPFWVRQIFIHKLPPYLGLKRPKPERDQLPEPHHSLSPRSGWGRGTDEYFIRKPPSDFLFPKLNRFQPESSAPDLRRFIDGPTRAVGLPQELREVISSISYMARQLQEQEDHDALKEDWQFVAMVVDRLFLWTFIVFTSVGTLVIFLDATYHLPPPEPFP
Chain of mouse muscle-type nicotinic receptors (P02716 25-520): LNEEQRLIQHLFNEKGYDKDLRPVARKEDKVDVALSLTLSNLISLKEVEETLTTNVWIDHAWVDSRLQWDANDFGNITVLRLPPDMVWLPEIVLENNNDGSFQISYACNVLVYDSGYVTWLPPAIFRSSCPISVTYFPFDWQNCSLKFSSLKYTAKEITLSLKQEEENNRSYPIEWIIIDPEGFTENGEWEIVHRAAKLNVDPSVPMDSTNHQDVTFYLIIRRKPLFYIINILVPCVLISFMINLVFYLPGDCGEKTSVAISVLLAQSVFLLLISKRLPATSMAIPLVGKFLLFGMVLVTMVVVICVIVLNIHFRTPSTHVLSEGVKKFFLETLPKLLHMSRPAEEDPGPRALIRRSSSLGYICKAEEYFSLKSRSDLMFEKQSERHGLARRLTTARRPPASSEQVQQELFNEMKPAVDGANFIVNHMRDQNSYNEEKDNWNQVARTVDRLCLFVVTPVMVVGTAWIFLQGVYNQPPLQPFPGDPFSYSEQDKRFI

5-HT3 receptors = conditions: unpublished results / in press; cited from earlier work

Chain of nAChR α7 (P36544 23-502): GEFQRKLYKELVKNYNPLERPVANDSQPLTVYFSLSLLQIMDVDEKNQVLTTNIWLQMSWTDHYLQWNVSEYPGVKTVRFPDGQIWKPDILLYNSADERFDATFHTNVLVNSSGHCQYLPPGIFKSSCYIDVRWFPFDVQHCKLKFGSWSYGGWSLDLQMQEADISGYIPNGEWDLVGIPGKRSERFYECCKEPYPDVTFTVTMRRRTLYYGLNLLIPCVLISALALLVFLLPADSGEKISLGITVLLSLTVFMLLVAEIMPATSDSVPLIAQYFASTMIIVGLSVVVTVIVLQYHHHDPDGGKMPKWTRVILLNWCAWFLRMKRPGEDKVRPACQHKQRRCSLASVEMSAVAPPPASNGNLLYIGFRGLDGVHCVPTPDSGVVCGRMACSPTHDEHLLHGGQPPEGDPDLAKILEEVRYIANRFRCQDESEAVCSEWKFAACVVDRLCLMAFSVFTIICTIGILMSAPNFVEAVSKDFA

O=C1NCC2(CN3CCC2CC3)O1 (single isomer, unassigned; (-))
agonist activity as Ca2+ flux signal, agonist alone (nAChR α7; no modulator): No discernible signal | agonist activity as Ca2+ flux signal, agonist together with modulator (nAChR α7; with nAChR α7 modulator): significant increase in agonist activity

Oc1ccc2[nH]ccc2c1 [5-hydroxyindole]
increase in area under the curve (α7-nicotinic receptor; 0.5 mM 5-OHi, saturating agonist (3 mM ACh), 1 second agonist application, FIG. 4): ~400% | increase of maximal response to ACh (maximum amplitude) (α7-nicotinic receptor; 5-hydroxyindole 500 μM against a range of ACh concentrations, FIG. 3): 2 fold | increase in efficacy of agonists at nicotinic receptors (α7-nicotinic receptor; general statement): greater than 2 fold | increase in efficacy of various nicotinic agonists afforded by 5-hydroxyindole (α7-nicotinic receptor; modulator 1 mM 5-OHi, ACh 3 mM, AR-R 17779 100 μM, FIG. 5): seen with all nicotinic agonists tested | current induced when applied by itself (α7-nicotinic receptor; no agonist, oocytes injected with cRNA for α7 nicotinic receptors): did not induce current | increase in efficacy on other nicotinic receptors [1]: not seen on any other nicotinic receptors

NCC(=O)O [Glycine]
effect on 5-HT3 receptors (5-HT3 receptors): no effect

NS(=O)(=O)c1cc2c(cc1Cl)NC(C1CC3C=CC1C3)NS2(=O)=O (stereo not drawn) [cyclothiazide]
effect on 5-HT3 receptors (5-HT3 receptors): block 5-HT3 receptors

NCCc1c[nH]c2ccc(O)cc12 [serotonin]
positive modulation on ACh activity (efficacy enhancing activity) (α7-nicotinic receptor): did not increase efficacy | positive modulation on ACh activity (efficacy enhancing activity) (α7-nicotinic receptor; listed as 5-HT): unable to reproduce the finding that 5-HT increases activity
